From ChEMBL document CHEMBL1131941, “Synthesis and biological evaluation of alpha,alpha-difluorobenzylphosphonic acid derivatives as small molecular inhibitors of protein-tyrosine phosphatase 1B” (Bioorg Med Chem Lett, 1999)

These molecules were tested against T1, Tyrosine-protein phosphatase non-receptor type 1 (Homo sapiens, UniProt P18031) (assay: Inhibitory potency for the protein tyrosine phosphatase (PTP 1B)-catalyzed hydrolysis of p-nitrophenol phosphate; No inhibition).
T1 sequence (P18031 whole entry): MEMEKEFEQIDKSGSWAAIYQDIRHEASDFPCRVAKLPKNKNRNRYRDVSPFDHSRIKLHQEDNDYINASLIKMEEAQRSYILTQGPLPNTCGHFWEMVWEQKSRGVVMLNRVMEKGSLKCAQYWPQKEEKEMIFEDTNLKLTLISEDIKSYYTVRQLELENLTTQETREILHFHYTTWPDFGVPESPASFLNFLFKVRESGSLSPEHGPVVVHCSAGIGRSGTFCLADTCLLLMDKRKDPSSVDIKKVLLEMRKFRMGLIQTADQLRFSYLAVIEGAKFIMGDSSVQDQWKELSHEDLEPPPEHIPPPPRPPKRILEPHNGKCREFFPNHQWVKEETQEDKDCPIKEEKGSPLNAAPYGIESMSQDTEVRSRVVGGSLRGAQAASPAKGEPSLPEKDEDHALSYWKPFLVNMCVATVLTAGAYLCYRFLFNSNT
Assay type: functional; call rule not given here

Structure (SMILES)	IC50
O=P(O)(O)C(F)(F)c1ccccc1	Not Active

Each molecule was assayed against T1, Tyrosine-protein phosphatase non-receptor type 1 (assay: Inhibitory potency for the protein tyrosine phosphatase (PTP 1B)-catalyzed hydrolysis of p-nitrophenol phosphate).
Assay type: functional

Structure (SMILES)	IC50
O=P(O)(O)C(F)(F)c1ccc(C#Cc2ccccc2)cc1	128 µM
COc1ccc(-c2ccc(C(F)(F)P(=O)(O)O)cc2)cc1	451 µM
O=P(O)(O)C(F)(F)c1ccc(/C=C/c2ccccc2)cc1	450 µM
CS(=O)(=O)Nc1cc(C(F)(F)P(=O)(O)O)ccc1C#Cc1ccccc1	167 µM
CS(=O)(=O)Nc1cc(C(F)(F)P(=O)(O)O)ccc1/C=C/c1ccccc1	176 µM
O=P(O)(O)C(F)(F)c1cccc(C#Cc2ccccc2)c1	136 µM
C#Cc1ccc(C(F)(F)P(=O)(O)O)cc1	77.5 µM
C#Cc1cccc(C(F)(F)P(=O)(O)O)c1	19 µM
O=P(O)(O)C(F)(F)c1cccc(/C=C/c2ccccc2)c1	386 µM
CS(=O)(=O)N(c1cc(C(F)(F)P(=O)(O)O)ccc1/C=C/c1ccccc1)S(C)(=O)=O	57.9 µM
O=P(O)(O)C(F)(F)c1ccc(-c2ccccc2)cc1	779 µM
CS(=O)(=O)N(c1cc(C(F)(F)P(=O)(O)O)ccc1C#Cc1ccccc1)S(C)(=O)=O	88.7 µM
O=P(O)(O)C(F)(F)c1ccc2ccccc2c1	718 µM
